Test results: patent US10118918B2, “PRMT5 inhibitors and uses thereof” (Epizyme, Inc., priority 2012, dated 2018)

Tests used:
PRMT5/MEP50 = PRMT5/MEP50 (Homo sapiens (Human), UniProt O14744); test: PRMT5 Biochemical Assay (PRMT5/MEP50 enzyme assay on peptide substrate, 3H-SAM Flashplate); details: PRMT5/MEP50 4 nM, 3H-SAM 75 nM, peptide 40 nM
Source text: S-adenosylmethionine (SAM), S-adenosylhomocysteine (SAH), bicine, KCl, Tween20, dimethylsulfoxide (DMSO), bovine skin gelatin (BSG), and Tris(2-carboxyethyl)phosphine hydrochloride solution (TCEP) were purchased from Sigma-Aldrich at the highest level of purity possible. ^3H-SAM was purchase from American Radiolabeled Chemicals with a specific activity of 80 Ci/mmol. 384-well streptavidin Flashplates were purchased from PerkinElmer.
Peptide representative of human histone H4 residues 1-15 was synthesized with a C-terminal linker-affinity tag motif and a C-terminal amide cap by 21st Century Biochemicals. The peptide was high high-performance liquid chromatography (HPLC) purified to greater than 95% purity and confirmed by liquid chromatography mass spectrometry (LC-MS). The sequence was Ac-[…][K-Biot]-amide (SEQ ID NO.: 3).
Full-length human PRMT5 (NM_006109.3) transcript variant 1 clone was amplified from a fetal brain cDNA library, incorporating flanking 5′ sequence encoding a FLAG tag ([…]) (SEQ ID NO.: 4) fused directly to Ala 2 of PRMT5. Full-length human MEP50 (NM_024102) clone was amplified from a human testis cDNA library incorporating a 5′ sequence encoding a 6-histidine tag (MHHHHHH) (SEQ ID NO.: 5) fused directly to Arg 2 of MEP50. The amplified genes were sublconed into pENTR/D/TEV (Life Technologies) and subsequently transferred by Gateway™ attL x attR recombination to pDEST8 baculvirus expression vector (Life Technologies).
Recombinant baculovirus and Baculovirus-Infected Insect Cells (BIIC) were generated according to Bac-to-Bac kit instructions (Life Technologies) and Wasilko, 2006, respectively. Protein over-expression was accomplished by infecting exponentially growing Spodoptera frugiperda (SF9) cell culture at 1.2×10^6 cell/ml with a 5000 fold dilution of BIIC stock. Infections were carried out at 27° C. for 72 hours, harvested by centrifugation, and stored at −80° C. for purification.
Flag-PRMT5/6His-MeP50 was eluted with 300 mM Imidazole in the same buffer. The purity of recovered protein was 87%. Reference: Wasilko, D. J. and S. E. Lee: “TIPS: titerless infected-cells preservation and scale-up” Bioprocess J., 5 (2006), pp. 29-32.
General Procedure for PRMT5/MEP50 Enzyme Assays on Peptide Substrates.
The assays were all performed in a buffer consisting of 20 mM Bicine (pH=7.6), 1 mM TCEP, 0.005% BSG, and 0.002% Tween20, prepared on the day of use. Compounds in 100% DMSO (1 ul) were spotted into a polypropylene 384-well V-bottom plates (Greiner) using a Platemate Plus outfitted with a 384-channel head (Thermo Scientific). DMSO (1 ul) was added to Columns 11, 12, 23, 24, rows A-H for the maximum signal control and 1 ul of SAH, a known product and inhibitor of PRMT5/MEP50, was added to columns 11, 12, 23, 24, rows I-P for the minimum signal control. A cocktail (40 ul) containing the PRMT5/MEP50 enzyme and the peptide was added by Multidrop Combi (Thermo-Fisher). The compounds were allowed to incubate with PRMT5/MEP50 for 30 min at 25 degrees Celsius, then a cocktail (10 ul) containing ^3H-SAM was added to initiate the reaction (final volume=51 ul). The final concentrations of the components were as follows: PRMT5/MEP50 was 4 nM, ^3H-SAM was 75 nM, peptide was 40 nM, SAH in the minimum signal control wells was 100 uM, and the DMSO concentration was 1%. The assays were stopped by the addition of non-radioactive SAM (10 ul) to a final concentration of 600 uM, which dilutes the ^3H-SAM to a level where its incorporation into the peptide substrate is no longer detectable. 50 ul of the reaction in the 384-well polypropylene plate was then transferred to a 384-well Flashplate and the biotinylated peptides were allowed to bind to the streptavidin surface for at least 1 hour before being washed three times with 0.1% Tween20 in a Biotek ELx405 plate washer. […]

Z-138 cells = test: Z-138 Proliferation Assay (Cell Titer Glo); format: cell-based; details: 5 days incubation
Source text: [formula] Z-138 Proliferation Assay
Z-138 suspension cells were purchased from ATCC (American Type Culture Collection, Manassas, Va.). RPMI/Glutamax medium, penicillin-streptomycin, heat inactivated fetal bovine serum were purchased from Life Technologies, Grand Island, N.Y., USA. V-bottom polypropylene 384-well plates were purchased from Greiner Bio-One, Monroe, N.C., USA. Cell culture 384-well white opaque plates were purchased from Perkin Elmer, Waltham, Mass., USA. Cell-Titer Glo® was purchased from Promega Corporation, Madison, Wis., USA. SpectraMax M5 plate reader was purchased from Molecular Devices LLC, Sunnyvale, Calif., USA.
Z-138 suspension cells were maintained in growth medium (RPMI 1640 supplemented with 10% v/v heat inactivated fetal bovine serum and cultured at 37° C. under 5% CO2. Under assay conditions, cells were incubated in assay medium (RPMI 1640 supplemented with 10% v/v heat inactivated fetal bovine serum and 100 units/mL penicillin-streptomycin) at 37° C. under 5% CO2.
For the assessment of the effect of compounds on the proliferation of the Z-138 cell line, exponentially growing cells were plated in 384-well white opaque plates at a density of 10,000 cells/ml in a final volume of 50 μl of assay medium. A compound source plate was prepared by performing triplicate nine-point 3-fold serial dilutions in DMSO, beginning at 10 mM (final top concentration of compound in the assay was 20 μM and the DMSO was 0.2%). A 100 nL aliquot from the compound stock plate was added to its respective well in the cell plate. […] After addition of compounds, assay plates were incubated for 5 days at 37° C., 5% CO2, relative humidity >90%.
Cell viability was measured by quantitation of ATP present in the cell cultures, adding 35 μl of Cell Titer Glo® reagent to the cell plates. Luminescence was read in the SpectraMax M5 microplate reader. The concentration of compound inhibiting cell viability by 50% was determined using a 4-parametric fit of the normalized dose response curves.

Sequence of PRMT5/MEP50 (O14744 other isoform, or with tags, fused parts or gaps): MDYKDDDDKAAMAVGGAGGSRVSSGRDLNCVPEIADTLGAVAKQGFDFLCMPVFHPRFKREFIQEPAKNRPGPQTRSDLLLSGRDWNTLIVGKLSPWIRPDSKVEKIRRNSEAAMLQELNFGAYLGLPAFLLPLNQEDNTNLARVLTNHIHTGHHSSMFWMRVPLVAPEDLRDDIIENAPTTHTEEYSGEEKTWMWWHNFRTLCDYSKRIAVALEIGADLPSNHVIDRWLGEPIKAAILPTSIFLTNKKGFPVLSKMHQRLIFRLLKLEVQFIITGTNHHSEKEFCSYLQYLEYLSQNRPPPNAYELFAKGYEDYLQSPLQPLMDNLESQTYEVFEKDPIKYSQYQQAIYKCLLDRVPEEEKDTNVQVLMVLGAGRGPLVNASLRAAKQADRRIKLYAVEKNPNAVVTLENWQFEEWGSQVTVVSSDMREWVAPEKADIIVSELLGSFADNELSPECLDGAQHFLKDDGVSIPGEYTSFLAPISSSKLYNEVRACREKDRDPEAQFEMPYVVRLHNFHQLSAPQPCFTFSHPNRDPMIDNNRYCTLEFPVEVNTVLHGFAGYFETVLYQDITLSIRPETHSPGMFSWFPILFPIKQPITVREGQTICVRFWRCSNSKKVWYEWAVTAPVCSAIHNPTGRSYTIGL
Sequence of PRMT5/MEP50 (Q9BQA1 other isoform, or with tags, fused parts or gaps partner): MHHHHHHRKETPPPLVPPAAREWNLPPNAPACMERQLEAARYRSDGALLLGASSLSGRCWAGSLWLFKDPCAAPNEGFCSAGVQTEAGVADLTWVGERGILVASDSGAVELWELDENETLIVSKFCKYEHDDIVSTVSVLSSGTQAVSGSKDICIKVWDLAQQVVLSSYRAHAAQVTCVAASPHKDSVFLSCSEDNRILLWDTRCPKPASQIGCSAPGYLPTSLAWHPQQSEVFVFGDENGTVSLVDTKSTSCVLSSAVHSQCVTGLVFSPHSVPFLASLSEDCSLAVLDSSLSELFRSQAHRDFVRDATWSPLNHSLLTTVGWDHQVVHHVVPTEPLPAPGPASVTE

C[C@@H](Oc1cccc2cccnc12)C(=O)NC[C@H](O)CN1Cc2ccccc2C1 [compound 5, (R)—N—((S)-2-hydroxy-3-(isoindolin-2-yl)propyl)-2-(quinolin-8-yloxy)propanamide] gave an IC50 (PRMT5/MEP50) of less than 0.1 µM and an EC50 (Z-138 cells; Homo sapiens, 120 h) of 1 to 10 µM.
Work on O=C(COc1ccccc1-c1cc[nH]n1)NCC(O)CN1Cc2ccccc2C1 (centres unmarked) [compound 7] yielded an IC50 (PRMT5/MEP50) of 0.101 to 1 µM and an EC50 (Z-138 cells; Homo sapiens, 120 h) greater than 20 µM.
O=C(NCC(O)CN1Cc2ccccc2C1)c1cccc(-c2ccccn2)c1 (centres unmarked) [compound 13, N-(2-hydroxy-3-(isoindolin-2-yl)propyl)-3-(pyridin-2-yl)benzamide] showed an IC50 (PRMT5/MEP50) of 0.101 to 1 µM and an EC50 (Z-138 cells; Homo sapiens, 120 h) greater than 20 µM.
Compound CN(C)S(=O)(=O)c1ccccc1OCC(=O)NCC(O)CN1Cc2ccccc2C1 (centres unmarked) [compound 15, 2-(2-(N,N-dimethylsulfamoyl)phenoxy)-N-(2-hydroxy-3-(isoindolin-2-yl)propyl)acetamide] has an IC50 (PRMT5/MEP50) of less than 0.1 µM and an EC50 (Z-138 cells; Homo sapiens, 120 h) of 1 to 10 µM.
For O=C(COc1cccc2cccnc12)NCC(O)CN1Cc2ccccc2C1 (centres unmarked) [compound 19, N-(2-hydroxy-3-(isoindolin-2-yl)propyl)-2-(quinolin-8-yloxy)acetamide], the IC50 (PRMT5/MEP50) was 0.101 to 1 µM and the EC50 (Z-138 cells; Homo sapiens, 120 h) was greater than 20 µM.
For O=C(NC[C@H](O)CN1Cc2ccccc2C1)c1cccc(NC2CCOCC2)c1 [compound 28], the IC50 (PRMT5/MEP50) was less than 0.1 µM and the EC50 (Z-138 cells; Homo sapiens, 120 h) was 10 to 50 µM.
Work on O=C(NC[C@H](O)CN1Cc2ccccc2C1)c1cc(NC2CCOCC2)ncn1 [compound 29] yielded an IC50 (PRMT5/MEP50) of less than 0.1 µM and an EC50 (Z-138 cells; Homo sapiens, 120 h) of 1 to 10 µM.
Cc1nc(NC2COC2)cc(C(=O)NC[C@H](O)CN2Cc3ccccc3C2)n1 [compound 35] was tested, and the IC50 (PRMT5/MEP50) was 0.101 to 1 µM and the EC50 (Z-138 cells; Homo sapiens, 120 h) was greater than 20 µM.
O=C(NC[C@H](O)CN1Cc2ccccc2C1)c1cc(NC2COC2)nc(C(F)(F)F)n1 [compound 36] showed an IC50 (PRMT5/MEP50) of 0.101 to 1 µM and an EC50 (Z-138 cells; Homo sapiens, 120 h) of 10 to 50 µM.
O=C(CCc1nc2ccccc2[nH]1)NCC(O)CN1Cc2ccccc2C1 (centres unmarked) [compound 37] was tested, and the IC50 (PRMT5/MEP50) was 0.101 to 1 µM and the EC50 (Z-138 cells; Homo sapiens, 120 h) was greater than 20 µM.
With O=C(NC[C@H](O)CN1Cc2ccccc2C1)c1cc(NC2COC2)nc(N2CCOCC2)n1 [compound 38] the IC50 (PRMT5/MEP50) was less than 0.1 µM and the EC50 (Z-138 cells; Homo sapiens, 120 h) was 1 to 10 µM.
For CC(=O)N1CCC(Nc2cc(C(=O)NC[C@H](O)CN3Cc4ccccc4C3)ccn2)CC1 [compound 40], the IC50 (PRMT5/MEP50) was less than 0.1 µM and the EC50 (Z-138 cells; Homo sapiens, 120 h) was 0.101 to 1 µM.
O=C(NC[C@H](O)CN1CCc2ccccc21)c1cc(NC2COC2)ncn1 [compound 42] gave an IC50 (PRMT5/MEP50) greater than 10 µM and an EC50 (Z-138 cells; Homo sapiens, 120 h) greater than 5 µM.
CC(=O)N1CCC(Nc2cc(C(=O)NC[C@H](O)CN3CCc4ccccc43)ncn2)CC1 [compound 43] gave an IC50 (PRMT5/MEP50) greater than 10 µM and an EC50 (Z-138 cells; Homo sapiens, 120 h) greater than 5 µM.
Work on CC(=O)N1CCC(Nc2cc(C(=O)NC[C@H](O)CN3CCc4ccccc43)ccn2)CC1 [compound 44] yielded an IC50 (PRMT5/MEP50) greater than 10 µM and an EC50 (Z-138 cells; Homo sapiens, 120 h) greater than 5 µM.
With O=C(NC[C@H](O)CN1CCCCc2ccccc21)c1cc(NC2COC2)ncn1 [compound 45] the IC50 (PRMT5/MEP50) was greater than 10 µM and the EC50 (Z-138 cells; Homo sapiens, 120 h) was greater than 5 µM.
With CC(=O)N1CC(Nc2cc(C(=O)NC[C@H](O)CN3CCCCc4ccccc43)ncn2)C1 [compound 46] the IC50 (PRMT5/MEP50) was greater than 10 µM and the EC50 (Z-138 cells; Homo sapiens, 120 h) was greater than 5 µM.
In the case of CC(=O)N1CCC(Nc2cc(C(=O)NC[C@H](O)CN3CCCCc4ccccc43)ncn2)CC1 [compound 47], the IC50 (PRMT5/MEP50) is reported as 1 to 10 µM and the EC50 (Z-138 cells; Homo sapiens, 120 h) is reported as greater than 5 µM.
In the case of O=C(NC[C@H](O)CN1CCCc2ccccc2C1)c1cc(NC2COC2)ncn1 [compound 48], the IC50 (PRMT5/MEP50) is reported as greater than 10 µM and the EC50 (Z-138 cells; Homo sapiens, 120 h) is reported as greater than 5 µM.
With CC(=O)N1CC(Nc2cc(C(=O)NC[C@H](O)CN3CCCc4ccccc4C3)ncn2)C1 [compound 49] the IC50 (PRMT5/MEP50) was 1 to 10 µM and the EC50 (Z-138 cells; Homo sapiens, 120 h) was greater than 5 µM.
In the case of CC(=O)N1CCC(Nc2cc(C(=O)NC[C@H](O)CN3CCCc4ccccc4C3)ncn2)CC1 [compound 50], the IC50 (PRMT5/MEP50) is reported as greater than 10 µM and the EC50 (Z-138 cells; Homo sapiens, 120 h) is reported as greater than 5 µM.
For “N-(2-hydroxy-3-(isoindolin-2-yl)propyl)-2-((4-methyl-3,4-dihydro-2H-benzo[b][1,4]oxazin-5-yl)oxy)acetamide [compound 10]”, the IC50 (PRMT5/MEP50) was 0.101 to 1 µM and the EC50 (Z-138 cells) was greater than 20 µM.
